In EP2196465A1, “(3-oxo)pyridazin-4-ylurea derivatives as PDE4 inhibitors” (Almirall, S.A., priority 2008, dated 2010):

target: recombinant PDE4 enzyme; assay: PDE4 [3H] cAMP Scintillation Proximity Assay (SPA); type: biochemical; details: inhibition of PDE4; 30 nM [3H] cAMP, 1 hr at room temperature, yeast extract of recombinant PDE4 enzyme
Description: Measurement of Phosphodiesterase Activity was done using a [3H] cAMP Scintillation Proximity Assay (SPA) (GE Healthcare). Compounds to be tested were disolved in DMSO at a stock concentration of 1mM and serial dilutions were prepared in 50% DMSO to determine IC50s.
The reactions were conducted in 96-well plates (Corning, Ref.3604) at room temperature, in 0.1 ml of reaction buffer containing (final concentrations): 50 mM Tris-HCl, pH 7.5, 8.3 mM MgCl2, 1.7 mM EGTA, 30 nM [3H] cAMP (approximately 150000 dpm/well) with or without the inhibitors. The reaction was initiated by adding yeast extract of recombinant PDE4 enzyme.
Plates were shaken for 1 hr at room temperature and the incubation was terminated by adding 50 µl (0.5 mg /well) of SPA yttrium silicate beads (RPNQ 0150; GE Healthcare) in the presence of zinc sulfate. Plates were stored overnight in the dark and read on a TRILUX microtiter plate reader (Perkin Elmer).

Row | Compound | IC50
1 | CCn1nc(-c2cccc(-c3cc(F)ccc3O)c2)cc(NC(=O)Nc2c(Cl)cncc2Cl)c1=O [Example 4, N-(3,5-Dichloropyridin-4-yl)-N'-[2-ethyl-6-(5'-fluoro-2'-hydroxybiphenyl-3-yl)-3-oxo-2,3-dihydropyridazin-4-yl]urea] | 237 pM
2 | CCn1nc(-c2cccc(-c3cccc(C(=O)NCCN(C)C)c3)c2)cc(NC(=O)Nc2c(Cl)cncc2Cl)c1=O [Example 17, 3'-[5-({[(3,5-Dichloropyridin-4-yl)amino]carbonyl}amino)-1-ethyl-6-oxo-1,6-dihydropyridazin-3-yl]-N-[2-(dimethylamino)ethyl]biphenyl-3-carboxamide] | 47 pM
3 | CCn1nc(-c2cccc(-c3cccc(C(=O)NC4CC4)c3)c2)cc(NC(=O)Nc2c(Cl)cncc2Cl)c1=O [Example 21, N-Cyclopropyl-3'-[5-({[(3,5-dichloropyridin-4-yl)amino]carbonyl}amino)-1-ethyl-6-oxo-1,6-dihydropyridazin-3-yl]biphenyl-3-carboxamide] | 127 pM
4 | CCn1nc(-c2cccc(-c3cccc(C(=O)NCCCN(C)C)c3)c2)cc(NC(=O)Nc2c(Cl)cncc2Cl)c1=O [Example 22, 3'-[5-({[(3,5-Dichloropyridin-4-yl)amino]carbonyl}amino)-1-ethyl-6-oxo-1,6-dihydropyridazin-3-yl]-N-[3-(dimethylamino)propyl]biphenyl-3-carboxamide] | 133 pM
5 | CCn1nc(-c2cccc(-c3ccc(C(=O)O)cc3)c2)cc(NC(=O)Nc2c(Cl)cncc2Cl)c1=O [Example 26, 3'-[5-({[(3,5-Dichloropyridin-4-yl)amino]carbonyl}amino)-1-ethyl-6-oxo-1,6-dihydropyridazin-3-yl]biphenyl-4-carboxylic acid] | 98 pM
6 | CCn1nc(-c2cccc(-c3cccc(C(=O)NCCN4CCCCC4)c3)c2)cc(NC(=O)Nc2c(Cl)cncc2Cl)c1=O [Example 51, 3'-[5-({[(3,5-Dichloropyridin-4-yl)amino]carbonyl}amino)-1-ethyl-6-oxo-1,6-dihydropyridazin-3-yl]-N-(2-piperidin-1-ylethyl)biphenyl-3-carboxamide] | 104 pM
7 | CCn1nc(-c2cccc(-c3ccc(CC(=O)NCCN4CCCCC4)cc3)c2)cc(NC(=O)Nc2c(Cl)cncc2Cl)c1=O [Example 117, 2-(3'-(5-(3-(3,5-dichloropyridin-4-yl)ureido)-1-ethyl-6-oxo-1,6-dihydropyridazin-3-yl)biphenyl-4-yl)-N-(2-(piperidin-1-yl)ethyl)acetamide] | 49 pM
8 | CCn1nc(-c2cccc(-c3cccc(CC(=O)NCCN4CCCCC4)c3)c2)cc(NC(=O)Nc2c(Cl)cncc2Cl)c1=O [Example 118, 2-(3'-(5-(3-(3,5-dichloropyridin-4-yl)ureido)-1-ethyl-6-oxo-1,6-dihydropyridazin-3-yl)biphenyl-3-yl)-N-(2-(piperidin-1-yl)ethyl)acetamide] | 100 pM
9 | CCn1nc(-c2cccc(-c3cccc(CC(=O)NCCN4CCOCC4)c3)c2)cc(NC(=O)Nc2c(Cl)cncc2Cl)c1=O [Example 119, 2-(3'-(5-(3-(3,5-dichloropyridin-4-yl)ureido)-1-ethyl-6-oxo-1,6-dihydropyridazin-3-yl)biphenyl-3-yl)-N-(2-morpholinoethyl)acetamide] | 61 pM
10 | CCn1nc(-c2cccc(-c3cccc(C(=O)NCCCCCCCN(C)CCO)c3)c2)cc(NC(=O)Nc2c(Cl)cncc2Cl)c1=O [Example 120, 3'-(5-(3-(3,5-dichloropyridin-4-yl)ureido)-1-ethyl-6-oxo-1,6-dihydropyridazin-3-yl)-N-(7-((2-hydroxyethyl)(methyl)amino)heptyl)biphenyl-3-carboxamide] | 31 pM
11 | CCn1nc(-c2cccc(-c3ccc(CC(=O)NCCCCCCCN(C)CCO)cc3)c2)cc(NC(=O)Nc2c(Cl)cncc2Cl)c1=O [Example 122, 2-(3'-(5-(3-(3,5-dichloropyridin-4-yl)ureido)-1-ethyl-6-oxo-1,6-dihydropyridazin-3-yl)biphenyl-4-yl)-N-(7-((2-hydroxyethyl)(methyl)amino)heptyl)acetamide] | 56 pM
12 | CCn1nc(-c2cccc(-c3cc(O)cc(C(=O)NCCCCCCCN(C)CCO)c3)c2)cc(NC(=O)Nc2c(Cl)cncc2Cl)c1=O [Example 124, 3'-(5-(3-(3,5-dichloropyridin-4-yl)ureido)-1-ethyl-6-oxo-1,6-dihydropyridazin-3-yl)-5-hydroxy-N-(7-((2-hydroxyethyl)(methyl)amino)heptyl)biphenyl-3-carboxamide] | 37 pM
13 | CCn1nc(-c2cccc(-c3cc(O)cc(C(=O)NC4CC4)c3)c2)cc(NC(=O)Nc2c(Cl)cncc2Cl)c1=O [Example 126, N-cyclopropyl-3'-[5-({[(3,5-dichloropyridin-4-yl)amino]carbonyl}amino)-1-ethyl-6-oxo-1,6-dihydropyridazin-3-yl]-5-hydroxybiphenyl-3-carboxamide] | 76 pM
14 | CCn1nc(-c2cccc(-c3cccc(CC(=O)NC4CC4)c3)c2)cc(NC(=O)Nc2c(Cl)cncc2Cl)c1=O [Example 127, N-cyclopropyl-2-{3'-[5-({[(3,5-dichloropyridin-4-yl)amino]carbonyl}amino)-1-ethyl-6-oxo-1,6-dihydropyridazin-3-yl]biphenyl-3-yl}acetamide] | 173 pM
15 | CCn1nc(-c2cccc(-c3cccc(C(=O)NCc4ccc(O)cc4)c3)c2)cc(NC(=O)Nc2c(Cl)cncc2Cl)c1=O [Example 138, 3'-[5-({[(3,5-dichloropyridin-4-yl)amino]carbonyl}amino)-1-ethyl-6-oxo-1,6-dihydropyridazin-3-yl]-N-(4-hydroxybenzyl)biphenyl-3-carboxamide] | 391 pM
